Consider two molecules from patent US20090163409A1, “Trappin-2 (elafin) inhibits HIV” (priority 2005, published 2009).

Entries after “also recorded” stand apart in the source; their conditions may differ. Where no end group is shown, it is not given here.

The test system of one assay is HIV HxBc2. The assay is described as follows: HIV HxBc2 viral replication in MT4 cells (RT activity in supernatants, p24 western blot). The format is cell-based. The procedure:
FIG. 4. Trappin-2 inhibits HIV viral replication in an in vitro system. A) We tested HIV HxBc2 in an established viral replication model system and measured the effect of pretreatment of recombinant human trappin-2 (6.0 kDa form) on cells in viral infection 15,19. Briefly, 1 or 5 ug/mL of trappin-2 was incubated with MT4 cells for 1 hour. Then equivalent amounts of virus (0.02 cpm/cell) were added to the cells in the presence of trappin-2 for 2 hours. Infected cells were washed and cultured in the absence of trappin-2. As a control, 10 uM of AZT was used. Viral production in supernatants was evaluated by RT activity after 6 days of culture. […] B) The experiment was repeated with an additional assay of trappin-2 preincubated with cells and subsequently supplemented into the culture media (lane 6). Supernatants were harvested at Day 6 of infection and assayed for both RT activity and western blot analysis for HIV p24. Error bars are mean±SEM.
(§1) Finally, the ability of trappin-2 (6.0 kDa form) to inhibit HIV infection in an established HIV infection model was examined. A highly infectable T cell line (MT4) was used to assay the effect of trappin-2 inhibition on HIV HxBc2 replication 13,14,15. HIV inhibition experiments were performed by preincubating trappin-2 with either the virus, or target cells. […] In our in vitro system a 5 fold increase in trappin-2 (FIG. 4b) had significant effects on HIV replication. Trappin-2 has previously been reported to have immunomodulatory effects and thus its influence on immune regulation is of interest. To determine if the HIV inhibitory effects of trappin-2 are the result of induction of anti-viral cytokines such as IFN-γ, cytokine responses of MT4 cells after treatment with trappin-2 were measured.
Background: A western blot detects proteins with antibodies after separation by electrophoresis.

Another assay deals with MT4 cells. The assay is described as follows: Cytokine responses of MT4 cells after treatment with trappin-2. The format is cell-based. The procedure:
as §1

Another assay deals with T cell tropic (X4) HIV. The settings on record: T cell tropic (X4) viruses; cited from earlier work.
Assay [1] concerns macrophage tropic (R5) HIV. The settings on record: macrophage tropic (R5) viruses; cited from earlier work.

Turning to “trappin-2: recombinant human trappin-2 (6.0 kDa form), serine protease inhibiter of the Trappin family, also known as elafin/SKALP (AQEPVKGPVSTKPGSCPIILIRCAMLNPPNRCLKDTDCPGIKKCCEGSCGMACFVPQ; not fully specified (bridges); also: four disulfide bridges, pairing not given here; UniProt P19957 61-117, looked up)”, the “HIV viral replication (RT activity in supernatants)” value with HIV HxBc2 (MT4 cells pretreated 1 hour with 1 or 5 ug/mL trappin-2 (physiological concentrations), virus 2 hours, washed, cultured without trappin-2, day 6) was “greatly reduced HIV viral replication in a dose dependent manner; also recorded: significantly reduced virus replication”. Further, the “inhibition of HIV replication” value with HIV HxBc2 (simultaneous addition of trappin-2 and virus to target cells, compared with 1-hour pre-exposure) is “significantly less inhibition”. Further, in the assay on HIV HxBc2 (trappin-2 preincubated 1 hour with cells and added back into the culture media, day 6), the “HIV viral replication (RT activity, p24 western blot)” value was “even more dramatic decrease in viral replication”. Further, the “induction of cytokines (anti-viral cytokines such as IFN-γ)” value with MT4 cells is given as “No induction of cytokines was detected”.

B1: SLP-I: protease inhibitor and member of the antileukoprotease superfamily, first isolated from human saliva (protein, UniProt P03973 26-132, looked up)
Antileukoproteinase: SGKSFKAGVCPPKKSAQCLRYKKPECQSDWQCPGKKRCCPDTCGIKCLDPVDTPNPTRRKPGKCPVTYGQCLMLNPPNFCEMDGQCKRDLKCCMGMCGKSCVSPVKA
With B1, the “prevention of infection of T cells” value with T cell tropic (X4) HIV is recorded as “does not prevent infection of T cells”. The “inhibition of HIV infection of macrophage cells” value in assay [1] is “inhibit HIV infection of macrophage cells”.
